Laboratory results taken from patent US20150105252A1, “SUBSTITUTED PYRAZOLES AS HERBICIDES” (E I DU PONT DE NEMOURS AND COMPANY, priority 2013, published 2015).

Key:
corn = assay: Test F postemergence; format: in vivo, Zea mays; details: scale 0 to 100
Text: Seeds of plant species selected from corn (Zea mays), soybean (Glycine max), velvetleaf (Abutilon theophrasti), lambsquarters (Chenopodium album), wild poinsettia (Euphorbia heterophylla), pigweed, palmer (palmer pigweed, Amaranthus palmeri), common waterhemp (Amaranthus rudis), surinam grass (Brachiaria decumbens), large crabgrass (Digitaria sanguinalis), crabgrass, Brazil (Brazilian crabgrass, Digitaria horizontalis), fall panicum (Panicum dichotomiflorum), giant foxtail (Setaria faberii), green foxtail (Setaria viridis), goosegrass (Eleusine indica), johnsongrass (Sorghum halepense), common ragweed (Ambrosia elation), barnyardgrass (Echinochloa crus-galli), southern sandbur (Cenchrus echinatus), arrowleaf sida (Sida rhombifolia), Italian ryegrass (Lolium multiflorum), dayflower, VA (Virginia (VA) dayflower, Commelina virginica), field bindweed (Convolvulus arvensis), cocklebur (common cocklebur, Xanthium strumarium), morningglory (Ipomoea coccinea), nightshade (eastern black nightshade, Solanum ptycanthum), kochia (Kochia scoparia), yellow nutsedge (Cyperus esculentus), and hairy beggarticks (Bidens pilosa), were planted into a silt loam soil and treated preemergence with test chemicals formulated in a non-phytotoxic solvent mixture which included a surfactant.
At the same time, plants from these crop and weed species and also horseweed (Canada horseweed, Conyza canadensis), smartweed (ladysthumb smartweed, Polygonum persicaria), waterhemp_RES1, (ALS & Triazine resistant common waterhemp, Amaranthus rudis), and waterhemp_RES2, (ALS & HPPD resistant common waterhemp, Amaranthus rudis) were treated with postemergence applications of test chemicals formulated in the same manner. Plants ranged in height from 2 to 18 cm for postemergence treatments (1- to 4-leaf stage). Treated plants and controls were maintained in a greenhouse for 14 to 21 days, after which time all species were compared to controls and visually evaluated. Plant response ratings, summarized in Table F, are based on a scale of 0 to 100 where 0 is no effect and 100 is complete control. A dash (-) response means no test result.

Surinam grass = assay: Test E preemergence; format: in vivo, Brachiaria decumbens; details: 21 days, scale 0 to 100
Text: (§1) Seeds of plant species selected from bermudagrass (Cynodon dactylon), Surinam grass (Brachiaria decumbens), crabgrass, large (large crabgrass, Digitaria sanguinalis), crabgrass, naked (naked crabgrass, Digitaria nuda), foxtail, green (green foxtail, Setaria viridis), johnsongrass (Sorghum halepense), kochia (Kochia scoparia), morningglory (pitted morningglory, Ipomoea lacunosa), nutsedge, purple (purple nutsedge, Cyperus rotundus), ragweed (common ragweed, Ambrosia elation), mustard, black (black mustard, Brassica nigra), guineagrass (Panicum maximum), dallisgrass (Paspalum dilatatum), barnyardgrass (Echinochloa crus-galli), sandbur (southern sandbur, Cenchrus echinatus), sowthistle (common sowthistle, Sonchus oleraceous), ryegrass, Italian (Italian ryegrass, Lolium multiflorum), signalgrass (broadleaf signalgrass, Brachiaria platyphylla), dayflower, VA (Virginia (VA) dayflower, Commelina virginica), bluegrass (annual bluegrass, Poa annua), quackgrass (Elytrigia repens), mallow (common mallow, Malva sylvestris), buckwheat, wild (wild buckwheat, Polygonum convolvulus), leafy spurge (Euphorbia esula), common chickweed (Stellaria media), wild poinsettia (Euphorbia heterophylla), pigweed, palmer (palmer pigweed, Amaranthus palmeri), and pigweed (redroot pigweed, Amaranthus retroflexus) were planted into a blend of loam soil and sand and treated preemergence with test chemicals formulated in a non-phytotoxic solvent mixture which included a surfactant.
(§2) Treated plants and controls were maintained in a greenhouse for 21 days, after which time all species were compared to controls and visually evaluated. Plant response ratings, summarized in Table E, are based on a scale of 0 to 100 where 0 is no effect and 100 is complete control. A dash (-) response means no test result.

pigweed = assay: Test E preemergence; format: in vivo, Amaranthus retroflexus; details: 21 days, scale 0 to 100
Text: as §1, §2

leafy spurge = assay: Test E preemergence; format: in vivo, Euphorbia esula; details: 21 days, scale 0 to 100
Text: as §1, §2

guineagrass = assay: Test E preemergence; format: in vivo, Panicum maximum; details: 21 days, scale 0 to 100
Text: as §1, §2

buckwheat, wild = assay: Test E preemergence; format: in vivo, Polygonum convolvulus; details: 21 days, scale 0 to 100
Text: as §1, §2

sowthistle = assay: Test E preemergence; format: in vivo, Sonchus oleraceous; details: 21 days, scale 0 to 100
Text: as §1, §2

blackgrass = assay: Test A postemergence; format: in vivo, Alopecurus myosuroides
In short: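 Greenhouse test in loam soil/sand blend; compounds formulated in non-phytotoxic solvent with surfactant, applied as preemergence directed soil spray or postemergence to plants 2–10 cm tall at one- to two-leaf stage. Injury rated visually versus untreated controls after approximately 10 days on a 0 (no effect) to 100 (complete control) scale.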

[1] = Postemergence, 500 g ai/ha, 0 to 100 scale (0 no effect, 100 complete control)
[2] = postemergence, 125 g ai/ha, about 10 days, visual rating on 0 to 100 scale (0 no effect, 100 complete control)

| SMILES | Plant response rating, Corn (corn; Postemergence, 31 g ai/ha) | Plant response rating, Corn (corn; Postemergence, 125 g ai/ha) | Plant response rating, Corn (corn; Postemergence, 250 g ai/ha) | Plant response rating, Corn (corn; postemergence, 62 g ai/ha) | Plant response rating, Surinam Grass (Surinam grass; 16 g ai/ha) | Plant response rating, Surinam Grass (Surinam grass; 31 g ai/ha) | Plant response rating, Surinam Grass (Surinam grass; 62 g ai/ha) | Plant response rating, Surinam Grass (Surinam grass; 125 g ai/ha) | Plant response rating, Pigweed (pigweed; 16 g ai/ha) | Plant response rating, Pigweed (pigweed; 31 g ai/ha) | Plant response rating, Pigweed (pigweed; 62 g ai/ha) | Plant response rating, Leafy Spurge (leafy spurge; 16 g ai/ha) | Plant response rating, Leafy Spurge (leafy spurge; 31 g ai/ha) | Plant response rating, Leafy Spurge (leafy spurge; 62 g ai/ha) | Plant response rating, Guineagrass (guineagrass; 16 g ai/ha) | Plant response rating, Guineagrass (guineagrass; 31 g ai/ha) | Plant response rating, Guineagrass (guineagrass; 62 g ai/ha) | Plant response rating, Buckwheat, Wild (buckwheat, wild; 16 g ai/ha) | Plant response rating, Buckwheat, Wild (buckwheat, wild; 31 g ai/ha) | Plant response rating, Buckwheat, Wild (buckwheat, wild; 62 g ai/ha) | also measured |
| --- | --- | --- | --- | --- | --- | --- | --- | --- | --- | --- | --- | --- | --- | --- | --- | --- | --- | --- | --- | --- | --- |
| CCc1cc(C(=O)NCC(F)(F)F)nn1Cc1ccnc(C(F)(F)F)c1 [Compound 78, 5-ethyl-N-(2,2,2-trifluoroethyl)-1-[[(2-trifluoromethyl)-4-pyridinyl]methyl]-1H-pyrazole-3-carboxamide] | 15 | 50 | 85 | 20 | 20 | 80 | 90 | 90 | 100 | 100 | 100 | 80 | 100 | 100 | 90 | 100 | 100 | 60 | 100 | 100 | Plant response rating, Surinam Grass (Surinam grass; 250 g ai/ha): 100; Plant response rating, Pigweed (pigweed; 125 g ai/ha): 100; Plant response rating, Pigweed (pigweed; 250 g ai/ha): 100; Plant response rating, Leafy Spurge (leafy spurge; 125 g ai/ha): 100; Plant response rating, Leafy Spurge (leafy spurge; 250 g ai/ha): 100; Plant response rating, Guineagrass (guineagrass; 125 g ai/ha): 100; Plant response rating, Guineagrass (guineagrass; 250 g ai/ha): 100; Plant response rating, Buckwheat, Wild (buckwheat, wild; 125 g ai/ha): 100; Plant response rating, Buckwheat, Wild (buckwheat, wild; 250 g ai/ha): 100; Plant response rating, Sowthistle (sowthistle; 62 g ai/ha): 100; Plant response rating, Sowthistle (sowthistle; 125 g ai/ha): 100; Plant response rating, Sowthistle (sowthistle; 250 g ai/ha): 100 |
| CCc1cc(C(=O)NC(C)C)nn1Cc1ccnc(C(F)(F)F)c1 [Compound 103] |  |  |  |  | 95 | 100 | 100 | 100 | 100 | 100 | 100 | 75 | 95 | 100 | 100 | 100 | 100 | 95 | 100 | 100 | Plant response rating, Surinam Grass (Surinam grass; 250 g ai/ha): 100; Plant response rating, Pigweed (pigweed; 125 g ai/ha): 100; Plant response rating, Pigweed (pigweed; 250 g ai/ha): 100; Plant response rating, Leafy Spurge (leafy spurge; 125 g ai/ha): 100; Plant response rating, Leafy Spurge (leafy spurge; 250 g ai/ha): 100; Plant response rating, Guineagrass (guineagrass; 125 g ai/ha): 100; Plant response rating, Guineagrass (guineagrass; 250 g ai/ha): 100; Plant response rating, Buckwheat, Wild (buckwheat, wild; 125 g ai/ha): 100; Plant response rating, Buckwheat, Wild (buckwheat, wild; 250 g ai/ha): 100 |
| CCOc1cc(C(=O)NCC(F)(F)F)nn1Cc1ccnc(C(F)(F)F)c1 [Compound 104] | 10 | 50 | 90 | 25 | 50 | 75 | 95 | 100 | 100 | 100 | 100 | 100 | 98 | 100 | 100 | 100 | 100 | 100 | 100 | 100 | Plant response rating, Surinam Grass (Surinam grass; 250 g ai/ha): 100; Plant response rating, Pigweed (pigweed; 125 g ai/ha): 100; Plant response rating, Pigweed (pigweed; 250 g ai/ha): 100; Plant response rating, Leafy Spurge (leafy spurge; 125 g ai/ha): 98; Plant response rating, Leafy Spurge (leafy spurge; 250 g ai/ha): 100; Plant response rating, Guineagrass (guineagrass; 125 g ai/ha): 100; Plant response rating, Guineagrass (guineagrass; 250 g ai/ha): 100; Plant response rating, Buckwheat, Wild (buckwheat, wild; 125 g ai/ha): 100; Plant response rating, Buckwheat, Wild (buckwheat, wild; 250 g ai/ha): 100 |
| CCONC(=O)c1cc(CC)n(Cc2cc(C(F)(F)F)no2)n1 [Compound 125] |  |  |  |  |  |  |  |  |  |  |  |  |  |  |  |  |  |  |  |  | Blackgrass plant response rating (blackgrass; [1]): 90; Blackgrass plant response rating (blackgrass; [2]): 30 |
| CCOc1cc(C(=O)NC2CC2)nn1Cc1ccnc(OC(F)F)c1 [Compound 133] |  |  |  |  |  |  |  |  |  |  |  |  |  |  |  |  |  |  |  |  | Blackgrass plant response rating (blackgrass; [1]): 100; Blackgrass plant response rating (blackgrass; [2]): 90 |
| CCOc1cc(C(=O)NC(C)C)nn1Cc1ccnc(C(F)(F)F)c1 [Compound 188] | 10 | 60 | 95 | 20 |  |  |  |  |  |  |  |  |  |  |  |  |  |  |  |  |  |
| CCOc1cc(C(=O)NC2CC2)nn1Cc1ccnc(C(F)(F)F)c1 [Compound 189] |  |  |  |  | 25 | 80 | 100 |  | 100 | 100 | 100 | 100 | 100 | 100 | 100 | 100 | 100 | 100 | 100 | 100 | Plant response rating, Surinam Grass (Surinam grass; 4 g ai/ha): 0; Plant response rating, Surinam Grass (Surinam grass; 8 g ai/ha): 0; Plant response rating, Pigweed (pigweed; 4 g ai/ha): 60; Plant response rating, Pigweed (pigweed; 8 g ai/ha): 60; Plant response rating, Leafy Spurge (leafy spurge; 4 g ai/ha): 35; Plant response rating, Leafy Spurge (leafy spurge; 8 g ai/ha): 75; Plant response rating, Guineagrass (guineagrass; 4 g ai/ha): 30; Plant response rating, Guineagrass (guineagrass; 8 g ai/ha): 75; Plant response rating, Buckwheat, Wild (buckwheat, wild; 4 g ai/ha): 70; Plant response rating, Buckwheat, Wild (buckwheat, wild; 8 g ai/ha): 100; Plant response rating, Sowthistle (sowthistle; 4 g ai/ha): 98; Plant response rating, Sowthistle (sowthistle; 8 g ai/ha): 98; Plant response rating, Sowthistle (sowthistle; 16 g ai/ha): 100; Plant response rating, Sowthistle (sowthistle; 31 g ai/ha): 100; Plant response rating, Sowthistle (sowthistle; 62 g ai/ha): 100 |
| CCc1cc(C(=O)NCC(F)(F)F)nn1Cc1cc(OC(F)F)nn1C [Compound 206] |  |  |  |  |  |  |  |  |  |  |  |  |  |  |  |  |  |  |  |  | Blackgrass plant response rating (blackgrass; [1]): 50; Blackgrass plant response rating (blackgrass; [2]): 0 |
